The values that follow come from PubChem BioAssay (NCI).

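Briefly, cells in 96-well plates were exposed to five compound concentrations for 48 h, and endpoints were estimated by linear interpolation. GI50: concentration for 50% inhibition of growth. TGI: total growth inhibition.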

Test systems include COLO 205 colon; NCI-H460 lung; NCI-H522 lung; OVCAR-4 ovarian; OVCAR-8 ovarian; SF-539 CNS; SK-MEL-5 melanoma; SR leukemia; SW-620 colon; SNB-75 CNS.
Common to all, as to assay: DTP human tumour cell line panel, 48 h

Turning to `CC(=O)c1c(C(F)(F)F)n([O-])c2ccccc2[n+]1=O`, the GI50 is 2.16 µM in the experiment on COLO 205 colon; 0.857 µM in the experiment with NCI-H460 lung; 2.46 µM in the experiment on NCI-H522 lung; 0.969 µM in the experiment with OVCAR-4 ovarian; 2.96 µM in the experiment on OVCAR-8 ovarian; 2 µM in the experiment with SF-539 CNS. Also, the GI50 was 0.494 µM in the experiment on SK-MEL-5 melanoma, 0.167 µM with SR leukemia and 1.57 µM with SW-620 colon. The TGI with COLO 205 colon is 7.27 µM; in the experiment with NCI-H460 lung, 10.8 µM; with NCI-H522 lung, more than 100 µM; with OVCAR-4 ovarian, 3.9 µM; in the experiment with OVCAR-8 ovarian, more than 100 µM; in the experiment with SF-539 CNS, 5.38 µM. The TGI turned out to be 1.87 µM in the experiment on SK-MEL-5 melanoma, 2.3 µM in the experiment on SR leukemia and 13.3 µM in the experiment with SW-620 colon.

On to `Cc1nc(C(N)=O)c(N)n1CCN1CCN(C(=O)CCCCCCCCCCNC2N=CNc3nc[nH]c32)CC1` (centres undefined), for which the TGI with COLO 205 colon was more than 100 µM; in the experiment with NCI-H460 lung it was more than 100 µM; in the experiment with OVCAR-8 ovarian, more than 100 µM; in the experiment with SF-539 CNS, more than 100 µM; in the experiment on SR leukemia it was 43.3 µM; with SW-620 colon, more than 100 µM.

Regarding `Oc1cccc(Nc2nc3ccccc3c3occc23)c1`, the GI50 in the experiment with COLO 205 colon is 13.8 µM; in the experiment on NCI-H460 lung, 6.13 µM; with NCI-H522 lung it was 14.5 µM; in the experiment with OVCAR-4 ovarian, 3.8 µM; in the experiment with OVCAR-8 ovarian, 13 µM; in the experiment on SF-539 CNS, 16.1 µM. The GI50 was 14 µM with SK-MEL-5 melanoma, 1.38 µM in the experiment on SR leukemia and 17.1 µM with SW-620 colon. The concentration for total growth inhibition (TGI) worked out at 26.7 µM in the experiment on COLO 205 colon; 20.2 µM in the experiment with NCI-H460 lung; 28.8 µM in the experiment with NCI-H522 lung; 22.1 µM in the experiment with OVCAR-4 ovarian; 30.5 µM in the experiment with OVCAR-8 ovarian; 29.6 µM with SF-539 CNS. Moreover, the TGI was found to be 27 µM with SK-MEL-5 melanoma, 18.8 µM in the experiment on SR leukemia and 30.8 µM in the experiment on SW-620 colon.

Regarding `CN1CCN(C(=S)N(C)C(=O)c2ccco2)CC1`, the TGI in the experiment with COLO 205 colon, in the experiment on NCI-H460 lung, with NCI-H522 lung, with OVCAR-4 ovarian, in the experiment with OVCAR-8 ovarian and in the experiment with SK-MEL-5 melanoma was more than 100 µM each time. In addition, the TGI in the experiment on SR leukemia and with SW-620 colon was more than 100 µM each time.

In the case of `CC1=C(C(=O)Nc2ccccc2C)C(c2ccc(Cl)cc2)C(C(=O)Nc2ccccc2C)=C(C)N1`, the TGI in the experiment with COLO 205 colon, in the experiment on NCI-H460 lung, in the experiment on NCI-H522 lung, in the experiment with OVCAR-4 ovarian, in the experiment on OVCAR-8 ovarian and with SF-539 CNS was more than 100 µM in each case. Besides, the TGI in the experiment with SK-MEL-5 melanoma, in the experiment with SR leukemia and in the experiment on SW-620 colon was more than 100 µM throughout.

Regarding `C[C@@H](NC(C#N)c1ccco1)c1ccccc1` (some centres undefined), the TGI with NCI-H460 lung, with OVCAR-8 ovarian, with SF-539 CNS, in the experiment with SK-MEL-5 melanoma, with SNB-75 CNS and in the experiment on SR leukemia was more than 100 µM throughout. Also, the TGI with SW-620 colon was more than 100 µM.

Regarding `O=C1CC(CC(=O)C2CCCCC2=O)C(=O)N1` (centres undefined), the TGI in the experiment with COLO 205 colon, in the experiment with NCI-H460 lung, in the experiment with NCI-H522 lung, in the experiment on OVCAR-4 ovarian, in the experiment with OVCAR-8 ovarian and in the experiment with SF-539 CNS was more than 100 µM in each case. Also, the TGI in the experiment on SNB-75 CNS, in the experiment with SR leukemia and with SW-620 colon was more than 100 µM in each case.

Consider `CC(C)=CCN1c2ccccc2NC(=O)CC1C` (centres undefined), for which the TGI in the experiment on COLO 205 colon was more than 100 µM; in the experiment on NCI-H460 lung, more than 100 µM; with NCI-H522 lung, more than 100 µM; in the experiment with OVCAR-4 ovarian it was 73.8 µM; with OVCAR-8 ovarian it was more than 100 µM; in the experiment on SF-539 CNS, more than 100 µM. For the same molecule, the TGI in the experiment with SK-MEL-5 melanoma is 85 µM; in the experiment with SR leukemia, more than 100 µM; with SW-620 colon, more than 100 µM.

For `COc1cc(Cl)cc(=O)c(O)c1OC`, the TGI with COLO 205 colon was more than 81.2 µM; with NCI-H460 lung, more than 100 µM; with NCI-H522 lung, more than 64.3 µM; with OVCAR-4 ovarian, more than 100 µM; in the experiment on OVCAR-8 ovarian it was more than 100 µM; in the experiment with SF-539 CNS, more than 100 µM. Besides, the TGI in the experiment on SNB-75 CNS and in the experiment with SR leukemia was more than 100 µM throughout.

Consider `CN(C)CCNC(=O)Cn1ccc(=O)c2cc([N+](=O)[O-])ccc21`, for which the TGI in the experiment on COLO 205 colon, with NCI-H460 lung, in the experiment with NCI-H522 lung, in the experiment with SF-539 CNS, in the experiment on SK-MEL-5 melanoma and in the experiment on SR leukemia was more than 100 µM each time. The same molecule showed a TGI in the experiment with SW-620 colon of more than 100 µM.

As to `COc1ccc(-c2noc(C(=O)O)c2-c2cc(OC)c(OC)c(OC)c2)cc1`, the GI50 with COLO 205 colon is 1.95 µM; in the experiment with NCI-H460 lung it was 2.52 µM; with NCI-H522 lung, 1.59 µM; in the experiment with OVCAR-4 ovarian, 9.53 µM; with OVCAR-8 ovarian, 5.61 µM; in the experiment with SF-539 CNS it was 2.45 µM. The GI50 was 1.3 µM in the experiment on SK-MEL-5 melanoma, 0.402 µM with SR leukemia and 1.53 µM with SW-620 colon. The TGI in the experiment with COLO 205 colon is 9.49 µM; in the experiment on NCI-H460 lung, more than 100 µM; with NCI-H522 lung, more than 100 µM; in the experiment on OVCAR-4 ovarian, more than 100 µM; with OVCAR-8 ovarian, more than 100 µM; with SF-539 CNS it was 20.5 µM. In addition, the TGI with SK-MEL-5 melanoma, in the experiment with SR leukemia and in the experiment on SW-620 colon was more than 100 µM throughout.

In the case of `N#C[Se]Cc1cc(-c2ccccc2)n(-c2ccc(S(N)(=O)=O)cc2)n1`, the GI50 with COLO 205 colon is 1.93 µM; in the experiment with NCI-H460 lung it was 0.264 µM; in the experiment with NCI-H522 lung, 2.14 µM; in the experiment on OVCAR-4 ovarian, 2.61 µM; with OVCAR-8 ovarian, 1.35 µM; in the experiment on SF-539 CNS, 1.38 µM. Besides, the GI50 in the experiment with SNB-75 CNS is 0.59 µM; in the experiment on SR leukemia, 1.37 µM; with SW-620 colon, 2.18 µM. In addition, the TGI was 3.61 µM with COLO 205 colon; 0.743 µM in the experiment with NCI-H460 lung; 5.55 µM in the experiment with NCI-H522 lung; 8.16 µM in the experiment on OVCAR-4 ovarian; more than 23.2 µM in the experiment with OVCAR-8 ovarian; 2.77 µM with SF-539 CNS. Moreover, the TGI was 3.51 µM with SNB-75 CNS, 6.13 µM in the experiment with SR leukemia and 4.8 µM in the experiment on SW-620 colon.

`Cc1cc2c(C)nn(Cc3ccccc3)c2c(C(=O)O)c1C`: the concentration for total growth inhibition (TGI) with COLO 205 colon, with OVCAR-8 ovarian, with SF-539 CNS, with SR leukemia and in the experiment with SW-620 colon was more than 100 µM throughout.

Consider `O=C1C2C3C=C4c5ccccc5N(c5ccccc5)C4(C2C(=O)N1c1ccccc1)C1C(=O)N(c2ccccc2)C(=O)C31` (centres undefined), for which the TGI in the experiment on COLO 205 colon, in the experiment on NCI-H460 lung, in the experiment with OVCAR-8 ovarian, in the experiment with SNB-75 CNS, in the experiment on SR leukemia and with SW-620 colon was more than 100 µM in each case.

For the molecule `Cc1c(/C=N/NC(=O)c2ccccc2O)c(=O)n(-c2ccccc2)n1C`, the TGI with COLO 205 colon, with NCI-H460 lung, with NCI-H522 lung, in the experiment on OVCAR-4 ovarian, in the experiment with OVCAR-8 ovarian and in the experiment on SF-539 CNS was more than 100 µM throughout. For the same molecule, the TGI in the experiment on SNB-75 CNS, in the experiment on SR leukemia and in the experiment with SW-620 colon was more than 100 µM throughout.

On to `N#CC(C#N)=C/C=C(\Cl)c1ccc(Cl)cc1`, for which the GI50 with COLO 205 colon is 7.72 µM; with NCI-H460 lung, 25.1 µM; with NCI-H522 lung it was 5.81 µM; in the experiment with OVCAR-4 ovarian it was 5.12 µM; in the experiment on OVCAR-8 ovarian, 10.1 µM; in the experiment on SF-539 CNS, 4.66 µM. For the same molecule, the results for the GI50 with SK-MEL-5 melanoma, in the experiment with SR leukemia and in the experiment with SW-620 colon were 3.13 µM, 3.31 µM and 1.93 µM, respectively. Further, the TGI in the experiment with COLO 205 colon was more than 52.1 µM; in the experiment with NCI-H460 lung, more than 100 µM; in the experiment on NCI-H522 lung, more than 49.6 µM; in the experiment with OVCAR-4 ovarian, 55.6 µM; with OVCAR-8 ovarian, 31.4 µM; with SF-539 CNS, 15.9 µM. The results for the TGI with SK-MEL-5 melanoma, in the experiment on SR leukemia and in the experiment with SW-620 colon were 11.5 µM, 37.3 µM and 9.9 µM, respectively.

For the molecule `c1ccc(C2ONC3=NCCN32)cc1` (centres undefined), the GI50 in the experiment on COLO 205 colon was 41.6 µM; with NCI-H460 lung it was 44.9 µM; in the experiment with NCI-H522 lung, 44.5 µM; with OVCAR-4 ovarian it was more than 100 µM; in the experiment on OVCAR-8 ovarian, 44.6 µM; with SF-539 CNS it was 46.6 µM. Also, the GI50 is 0.995 µM in the experiment on SK-MEL-5 melanoma, 53.4 µM with SNB-75 CNS and 44.7 µM in the experiment on SW-620 colon. Besides, the concentration for total growth inhibition (TGI) with COLO 205 colon, in the experiment on NCI-H460 lung, with NCI-H522 lung, in the experiment on OVCAR-4 ovarian, with OVCAR-8 ovarian and with SF-539 CNS was more than 100 µM in each case. In addition, the TGI with SK-MEL-5 melanoma is 49.6 µM; with SNB-75 CNS, more than 100 µM; with SW-620 colon, more than 100 µM.

As to `O=C1/C(=C/c2ccc([N+](=O)[O-])cc2)CN(C(=O)CCN2CCC(=NO)CC2)C/C1=C\c1ccc([N+](=O)[O-])cc1`, the GI50 in the experiment with COLO 205 colon is 2.33 µM; with NCI-H460 lung it was 1.15 µM; with NCI-H522 lung, 0.86 µM; with OVCAR-4 ovarian it was 1.31 µM; in the experiment with OVCAR-8 ovarian it was 0.806 µM; in the experiment with SF-539 CNS, 0.969 µM. Also, the GI50 with SK-MEL-5 melanoma is 1.99 µM; in the experiment on SNB-75 CNS, 1.95 µM; with SW-620 colon it was 0.311 µM. In addition, the TGI was 5.93 µM in the experiment on COLO 205 colon; 3.95 µM with NCI-H460 lung; 3.28 µM in the experiment on NCI-H522 lung; 5.36 µM in the experiment with OVCAR-4 ovarian; 5.5 µM in the experiment with OVCAR-8 ovarian; 2.91 µM in the experiment on SF-539 CNS. The TGI in the experiment with SK-MEL-5 melanoma worked out at 4.38 µM; with SNB-75 CNS, 9.05 µM; with SW-620 colon, 0.982 µM.
